Source: patent US10100010B1, “4-methoxy pyrrole derivatives or salts thereof and pharmaceutical composition comprising the same” (Daewoong Pharmaceutical Co., Ltd., priority 2015, dated 2018)

Tested on: 100% ethanol (EtOH)-induced gastric damage in rats
Experiment: 100% ethanol (EtOH)-induced gastric damage in rats, gastric damage inhibition and mucus enhancement
Assay type: in vivo, Sprague Dawley (SD) rats
Conditions: oral 3.0, 10.0 and 30.0 mg/kg, 1 hour before 100% EtOH
Experimental: The inhibitory activity and defensive factor-enhancing effects of the compound prepared in Example 8 were measured using 100% ethanol (EtOH)-induced gastric damage model (Paul V. Tan et al., 2002, Journal of Ethnopharmacology, 82, p 69-74). Male Sprague Dawley (SD) rats (body weight 180-200 g) was fasted for 24 hours with free access to water. Control group was orally administered with 5 mL/kg of 0.5% methyl cellulose (MC) aqueous solution, and the other groups were orally administered with test compounds suspended in 0.5% MC aqueous solution at a dose of 3.0, 10.0 and 30.0 mg/kg/5 mL. For comparison, the compound of Example 134 (Comparative Example 1), the compound of Example 165 (Comparative Example 2) and the compound of Example 166 (Comparative Example 3) in International Patent Publication No. WO2006/036024 were orally administered at the same dose by suspending 0.5% MC aqueous solution, respectively. 1 hour after oral administration, 1 mL of 100% EtOH was orally administered. 1 hour after EtOH administration, the test animals were sacrificed to remove the stomach. Ten in the total 20 animals scraped the mucus of stomach with a slide glass and the mucus contents were analyzed to calculate ED50. […] The incised stomach was placed on a fixture, fixed by a fixing pin while spreading out using a forcep and then the gastric damage area was measured to calculate ED50.

**Q.** What does the source list for `CNCc1cn(S(=O)(=O)c2cccc(F)c2)c(-c2ccc(F)cc2F)c1OC.Cl` [Example 8, 1-(5-(2,4-difluorophenyl)-1-((3-fluorophenyl)sulfonyl)-4-methoxy-1H-pyrrol-3-yl)-N-methylmethanamine hydrochloride]?
**A.** ED50 (Rattus norvegicus, read-out: Mucus secretion ED50): 12.2 mg/kg; Gastric index ED50 (gastric damage area): 13.4 mg/kg
